In patent US20240409585A1, “MACROCYCLIC IMMUNOMODULATORS” (priority 2021, published 2024) one finds IC50 data, which are given here for 14 molecules.

Each structure is given as a SMILES string. Numbered stars: 1 amine (or outer) side, 2 acyl side, 3 side chain; on linkers, the order of the positions; unused ones are H or OH. Bridge positions count the residues as written; N and C are the ends. Square brackets hold non-standard residues; d marks the D form. Peptide text beside a SMILES is read from it. * marks the point of attachment. ξ: configuration not given here. Phe(3-CF3) = N[C@@H](Cc1cccc(C(F)(F)F)c1)C(=O)O; Phe(4-COOH) = N[C@@H](Cc1ccc(C(=O)O)cc1)C(=O)O; Trp(7-Me) = Cc1cccc2c(C[C@H](N)C(=O)O)c[nH]c12; Bip = N[C@@H](Cc1ccc(-c2ccccc2)cc1)C(=O)O; X37 = O=C([C@H](Cc1cn[nH]c1)N[*:1])[*:2]; Phe(3-Me) = Cc1cccc(C[C@H](N)C(=O)O)c1; 1Nal = N[C@@H](Cc1cccc2ccccc12)C(=O)O; Val(3-OH) = CC(C)(O)[C@H](N)C(=O)O; d(hPhe) = N[C@H](CCc1ccccc1)C(=O)O; 4Pal = N[C@@H](Cc1ccncc1)C(=O)O; Cha = N[C@@H](CC1CCCCC1)C(=O)O; Cit = NC(=O)NCCC[C@H](N)C(=O)O; Ile(3ξ) = CCC(C)[C@H](N)C(=O)O; Thr(3ξ) = CC(O)[C@H](N)C(=O)O; dNva = CCC[C@@H](N)C(=O)O; Carboxymethyl = O=C(O)C*; NMeA = CN[C@@H](C)C(=O)O; Pra = C#CC[C@H](N)C(=O)O; Dab = NCC[C@H](N)C(=O)O

For this experiment, the target named is T1, PE-labeled human PD-L1-Ig binding to Jurkat cell line over-expressing human PD-1 (Jurkat-PD-1) (Homo sapiens, UniProt Q15116).
T1 construct: expressed in transfected cells; host or cells: Jurkat
T1 sequence (Q15116 25-288): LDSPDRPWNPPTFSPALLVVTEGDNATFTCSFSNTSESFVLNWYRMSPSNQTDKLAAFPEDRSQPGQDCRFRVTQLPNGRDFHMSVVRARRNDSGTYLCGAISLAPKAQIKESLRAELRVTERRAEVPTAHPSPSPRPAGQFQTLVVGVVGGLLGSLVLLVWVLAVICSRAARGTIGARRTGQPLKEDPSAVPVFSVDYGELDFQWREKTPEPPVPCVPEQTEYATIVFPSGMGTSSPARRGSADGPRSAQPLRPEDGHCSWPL
As to the kind of experiment: Jurkat-PD-1 Cell Binding High-Content Screening Assay (CBA): Method 1. The following applies: Jurkat-hPD-1 cells, PE-labeled PD-L1-Ig 20 nM final; read-out: Jurkat HPDL1 PD1 IC50 (uM) (Method 1).
Broadly, the IC50 is the point on the concentration scale where inhibition reaches its midpoint. In the case of `CC(C)C[C@@H]1NC(=O)[C@H](Cc2c[nH]c3ccccc23)NC(=O)[C@H](CC(=O)O)NC(=O)[C@H](Cc2ccc(OCC(=O)O)cc2)NC(=O)[C@H](Cc2ccncc2)NC(=O)CSC[C@@H](C(=O)N[C@@H](C)C(N)=O)NC(=O)[C@H](CO)NC(=O)[C@H](C(C)C)NC(=O)[C@H](CC(C)C)NC(=O)[C@H](CC(N)=O)NC(=O)[C@@H](C)NC(=O)[C@H](C)N(C)C(=O)[C@H](C(C)C)NC(=O)[C@H](Cc2ccc(-c3ccccc3)cc2)NC1=O` [Compound 1563] ({CH2CO}-[4Pal]Y(Carboxymethyl)DWL[Bip]V[NMeA][dA]NLVSCA-NH2; thioether N-14), the concentration for half-maximal inhibition (IC50) stood at 0.02 µM. Regarding `Cc1cccc(C[C@@H]2NC(=O)[C@H](Cc3ccccc3)NC(=O)CSC[C@@H](C(=O)NCC(N)=O)NC(=O)[C@H](CO)NC(=O)[C@H](C(C)C)NC(=O)[C@H](CC(C)C)NC(=O)[C@H](CC(N)=O)NC(=O)[C@@H](CC(C)C)NC(=O)[C@H](C)N(C)C(=O)[C@H](C(C)C)NC(=O)[C@H](Cc3ccc(-c4ccccc4)cc3)NC(=O)[C@H](CC(C)C)NC(=O)[C@H](Cc3c[nH]c4ccccc34)NC(=O)[C@H](CC(=O)O)NC2=O)c1` [Compound 1518] ({CH2CO}-F[Phe(3-Me)]DWL[Bip]V[NMeA][dL]NLVSCG-NH2; thioether N-14), the IC50 came to 0.05 µM. The result for `CC(C)C[C@@H]1NC(=O)[C@H](CCCNC(=N)N)NC(=O)[C@@H](CC(C)C)NC(=O)[C@H](C)N(C)C(=O)[C@H](CCCNC(=N)N)NC(=O)[C@H](Cc2ccc(-c3ccccc3)cc2)NC(=O)[C@H](C(C)C)NC(=O)[C@H](Cc2cccc3ccccc23)NC(=O)[C@H](CC(=O)O)NC(=O)[C@H](Cc2ccc(O)cc2)NC(=O)[C@H](CC(N)=O)NC(=O)CSC[C@@H](C(=O)N[C@@H](C)C(N)=O)NC(=O)[C@H]([C@@H](C)O)NC(=O)[C@H](C(C)C)NC1=O` [Compound 1126] ({CH2CO}-NYD[1Nal]V[Bip]R[NMeA][dL]RLVTCA-NH2; thioether N-14) reads 0.23 µM; that for `C#CC[C@H](NC(=O)[C@@H](C)NC(=O)[C@@H]1CSCC(=O)N[C@@H]([C@@H](C)O)C(=O)N[C@@H](Cc2ccc(OCC(=O)O)cc2)C(=O)N[C@@H](CC(=O)O)C(=O)N[C@@H](Cc2cccc(C)c2)C(=O)N[C@@H](Cc2ccc(OCC(=O)O)cc2)C(=O)N[C@@H](Cc2ccc(-c3ccccc3)cc2)C(=O)N[C@@H](Cc2ccc(OCC(=O)O)cc2)C(=O)N(C)[C@@H](C)C(=O)N[C@H](CC(C)C)C(=O)N[C@@H](CCN)C(=O)N[C@@H](CC2CCCCC2)C(=O)N[C@@H](C(C)(C)O)C(=O)N[C@@H](CCC(=O)O)C(=O)N1)C(=O)O` [Compound 1944] ({CH2CO}-TY(Carboxymethyl)D[Phe(3-Me)]Y(Carboxymethyl)[Bip]Y(Carboxymethyl)[NMeA][dL][Dab][Cha][Val(3-OH)]EC[dA][Pra]-OH; thioether N-14), 0.9 µM; that for `CC(C)C[C@@H]1NC(=O)[C@H](CCCNC(=N)N)NC(=O)[C@@H](CC(C)C)NC(=O)[C@H](C)N(C)C(=O)[C@H](CCCNC(N)=O)NC(=O)[C@H](Cc2ccc(-c3ccccc3)cc2)NC(=O)[C@H](C(C)C)NC(=O)[C@H](Cc2c[nH]c3ccccc23)NC(=O)[C@H](CC(=O)O)NC(=O)[C@H](Cc2ccc(O)cc2)NC(=O)[C@H](CC(N)=O)NC(=O)CSC[C@@H](C(=O)NCC(N)=O)NC(=O)[C@H](CO)NC(=O)[C@H](C(C)C)NC1=O` [Compound 1246] ({CH2CO}-NYDWV[Bip][Cit][NMeA][dL]RLVSCG-NH2; thioether N-14), 0.05 µM. The result for `Cc1cccc(C[C@@H]2NC(=O)[C@H](CC(=O)O)NC(=O)[C@H](Cc3ccc(OCC(=O)O)cc3)NC(=O)[C@H](C(C)O)NC(=O)CSC[C@@H](C(N)=O)NC(=O)[C@H](CCCCN)NC(=O)[C@H](C(C)C)NC(=O)[C@H](CC(C)C)NC(=O)[C@H](CC(N)=O)NC(=O)[C@@H](CC(C)C)NC(=O)[C@H](C)N(C)C(=O)[C@H](C(C)C)NC(=O)[C@H](Cc3ccc(-c4ccccc4)cc3)NC(=O)[C@H](CC(C)C)NC2=O)c1` (stereo partly drawn) [Compound 2259] ({CH2CO}-[Thr(3ξ)]Y(Carboxymethyl)D[Phe(3-Me)]L[Bip]V[NMeA][dL]NLVKC-NH2; thioether N-14) reads 0.1 µM; that for `CCC(C)[C@@H]1NC(=O)[C@H](Cc2ccc(-c3ccccc3)cc2)NC(=O)[C@H](CC(C)C)NC(=O)[C@H](Cc2c[nH]c3ccccc23)NC(=O)[C@H](CC(=O)O)NC(=O)[C@H](Cc2ccc(C(=O)O)cc2)NC(=O)[C@H](Cc2ccc(OCC(=O)O)cc2)NC(=O)CSC[C@@H](C(=O)N[C@@H](CCN)C(N)=O)NC(=O)[C@H]([C@@H](C)O)NC(=O)[C@H](C(C)C)NC(=O)[C@H](CC2CCCCC2)NC(=O)[C@H](CCN)NC(=O)[C@@H](CC(C)C)NC(=O)[C@H](C)N(C)C1=O` (stereo partly drawn) [Compound 1926] ({CH2CO}-Y(Carboxymethyl)[Phe(4-COOH)]DWL[Bip][Ile(3ξ)][NMeA][dL][Dab][Cha]VTC[Dab]-NH2; thioether N-14), 0.01 µM. `CCC[C@H]1NC(=O)[C@H](C)N(C)C(=O)[C@H](C(C)C)NC(=O)[C@H](Cc2ccc(-c3ccccc3)cc2)NC(=O)[C@H](CC(C)C)NC(=O)[C@H](Cc2c[nH]c3ccccc23)NC(=O)[C@H](CC(=O)O)NC(=O)[C@H](Cc2ccc(O)cc2)NC(=O)[C@H](Cc2ccccc2)NC(=O)CSC[C@@H](C(=O)N[C@@H](C)C(N)=O)NC(=O)[C@H](CO)NC(=O)[C@H](C(C)C)NC(=O)[C@H](CC(C)C)NC(=O)[C@H](CC(N)=O)NC1=O` [Compound 1755] ({CH2CO}-FYDWL[Bip]V[NMeA][dNva]NLVSCA-NH2; thioether N-14): the IC50 was 0.03 µM. Take `CC(C)C[C@@H]1NC(=O)[C@H](CCN)NC(=O)[C@@H](CC(C)C)NC(=O)[C@H](C)N(C)C(=O)[C@H](CCCNC(=N)N)NC(=O)[C@H](Cc2ccc(-c3ccccc3)cc2)NC(=O)[C@H](C(C)C)NC(=O)[C@H](Cc2c[nH]c3ccccc23)NC(=O)[C@H](CC(=O)O)NC(=O)[C@H](Cc2ccc(O)cc2)NC(=O)[C@H](Cc2cn[nH]c2)NC(=O)CSC[C@@H](C(=O)N[C@@H](C)C(N)=O)NC(=O)[C@H]([C@@H](C)O)NC(=O)[C@H](C(C)C)NC1=O` [Compound 1159] ({CH2CO}-[X37]YDWV[Bip]R[NMeA][dL][Dab]LVTCA-NH2; thioether N-14): the IC50 worked out at 0.07 µM. Take `Cc1cccc2c(C[C@@H]3NC(=O)[C@H](CC(=O)O)NC(=O)[C@H](Cc4ccc(O)cc4)NC(=O)[C@H](Cc4ccccc4)NC(=O)CSC[C@@H](C(=O)N[C@@H](C)C(N)=O)NC(=O)[C@H]([C@@H](C)O)NC(=O)[C@H](C(C)C)NC(=O)[C@H](CC(C)C)NC(=O)[C@H](CCN)NC(=O)[C@@H](CC(C)C)NC(=O)[C@H](C)N(C)C(=O)[C@H](CCCNC(=N)N)NC(=O)[C@H](Cc4ccc(-c5ccccc5)cc4)NC(=O)[C@H](C(C)C)NC3=O)c[nH]c12` [Compound 1201] ({CH2CO}-FYD[Trp(7-Me)]V[Bip]R[NMeA][dL][Dab]LVTCA-NH2; thioether N-14): the IC50 worked out at 0.56 µM. With `Cc1cccc(C[C@@H]2NC(=O)[C@H](CC(=O)O)NC(=O)[C@H](Cc3ccc(OCC(=O)O)cc3)NC(=O)[C@H]([C@@H](C)O)NC(=O)CSC[C@@H](C(N)=O)NC(=O)[C@H](CC(N)=O)NC(=O)[C@H](C(C)C)NC(=O)[C@H](CC3CCCCC3)NC(=O)[C@H](CCN)NC(=O)[C@@H](CC(C)C)NC(=O)[C@H](C)N(C)C(=O)[C@H](Cc3ccc(OCC(=O)O)cc3)NC(=O)[C@H](Cc3ccc(-c4ccccc4)cc3)NC(=O)[C@H](Cc3ccc(OCC(=O)O)cc3)NC2=O)c1` [Compound 1669] ({CH2CO}-TY(Carboxymethyl)D[Phe(3-Me)]Y(Carboxymethyl)[Bip]Y(Carboxymethyl)[NMeA][dL][Dab][Cha]VNC-NH2; thioether N-14), the concentration for half-maximal inhibition (IC50) worked out at 0.06 µM.

`Cc1cccc(C[C@@H]2NC(=O)[C@H](CC(=O)O)NC(=O)[C@H](Cc3ccc(O)cc3)NC(=O)[C@H](CC(N)=O)NC(=O)CSC[C@@H](C(=O)N[C@@H](CCN)C(N)=O)NC(=O)[C@H]([C@@H](C)O)NC(=O)[C@H](C(C)(C)O)NC(=O)[C@H](CC3CCCCC3)NC(=O)[C@H](CCN)NC(=O)[C@@H](CC(C)C)NC(=O)[C@H](C)N(C)C(=O)[C@H](CCCNC(N)=O)NC(=O)[C@H](Cc3ccc(-c4ccccc4)cc3)NC(=O)[C@H](C(C)(C)O)NC2=O)c1` [Compound 1705] ({CH2CO}-NYD[Phe(3-Me)][Val(3-OH)][Bip][Cit][NMeA][dL][Dab][Cha][Val(3-OH)]TC[Dab]-NH2; thioether N-14): the half-inhibitory concentration (IC50) was found to be 0.03 µM.

Take `CC(C)C[C@@H]1NC(=O)[C@H](CCCNC(=N)N)NC(=O)[C@@H](CCc2ccccc2)NC(=O)[C@H](C)N(C)C(=O)[C@H](CCCNC(=N)N)NC(=O)[C@H](Cc2ccc(-c3ccccc3)cc2)NC(=O)[C@H](C(C)C)NC(=O)[C@H](Cc2c[nH]c3ccccc23)NC(=O)[C@H](CC(=O)O)NC(=O)[C@H](Cc2ccc(O)cc2)NC(=O)[C@H](Cc2ccccc2)NC(=O)CSC[C@@H](C(=O)NCC(N)=O)NC(=O)[C@H](CO)NC(=O)[C@H](C(C)C)NC1=O` [Compound 1018] ({CH2CO}-FYDWV[Bip]R[NMeA][d(hPhe)]RLVSCG-NH2; thioether N-14): the IC50 was determined as 0.12 µM.

`CC(C)C[C@@H]1NC(=O)[C@H](CCN)NC(=O)[C@@H](CC(C)C)NC(=O)[C@H](C)N(C)C(=O)[C@H](C(C)C)NC(=O)[C@H](Cc2ccc(-c3ccccc3)cc2)NC(=O)[C@H](C(C)C)NC(=O)[C@H](Cc2cccc(C(F)(F)F)c2)NC(=O)[C@H](CC(=O)O)NC(=O)[C@H](Cc2ccc(O)cc2)NC(=O)[C@H](CC(N)=O)NC(=O)CSC[C@@H](C(=O)N[C@@H](C)C(N)=O)NC(=O)[C@H]([C@@H](C)O)NC(=O)[C@H](C(C)C)NC1=O` [Compound 1290] ({CH2CO}-NYD[Phe(3-CF3)]V[Bip]V[NMeA][dL][Dab]LVTCA-NH2; thioether N-14): the IC50 was 0.01 µM.
